Results on four compounds are retold here after patent US20260217701A1, “SELECTIVE BET INHIBITORS AND USES THEREOF” (Tay Therapeutics Limited, priority 2022, published 2026).

Several values for one entry are separate records, joined by “and”; a condition that tells them apart may be missing. Equal entries are not always repeated. Marks after values point to notes of the source that are not given here.

In series [1] the test system is collagen-induced arthritis. As to the kind of experiment: CIA model: histopathologic analysis of hind limbs. The series is classed as in vivo, Lewis rats. To be noted: for Erosion/Ulcer, cartilaginous, Marked (number of animals) / Erosion/Ulcer, cartilaginous, Mild (number of animals) / Erosion/Ulcer, cartilaginous, Minimal (number of animals) / Erosion/Ulcer, cartilaginous, Moderate (number of animals) / Granulation tissue, Marked (number of animals) / Granulation tissue, Mild (number of animals) / Granulation tissue, Minimal (number of animals) / Granulation tissue, Moderate (number of animals) / Increased bone, periosteum, Marked (number of animals) / Increased bone, periosteum, Mild (number of animals) / Increased bone, periosteum, Minimal (number of animals) / Increased bone, periosteum, Moderate (number of animals) / Increased eroded surface, bone, Marked (number of animals) / Increased eroded surface, bone, Mild (number of animals) / Increased eroded surface, bone, Minimal (number of animals) / Increased eroded surface, bone, Moderate (number of animals) / Mixed cell inflammation, Marked (number of animals) / Mixed cell inflammation, Mild (number of animals) / Mixed cell inflammation, Minimal (number of animals) / Mixed cell inflammation, Moderate (number of animals) / No Visible Lesions (number of animals): hind limbs, CIA induced, 8 animals examined, comparator, dose not given; for Pathologic observations after microscopic evaluation: Group 3 (CIA + Dexamethasone). The text has this:
Mean histopathologic scores for tissue samples from animals in Groups 1-6 are depicted in FIG. 22A, and day 21 histology scores for all animals are illustrated in FIG. 22B.

Another series concerns BET BD2. The note with it: public sources, not a head-to-head trial, cited from earlier work; for BD2: comparator BET inhibitors.
A further series concerns the target T1, BRD4 BD2 (Homo sapiens, UniProt O60885).
T1 construct: HEK293 cells were transfected using NanoLuc-BRD4-BD1 or NanoLuc-BRD4-BD2 fusion vectors
As to the kind of experiment: NanoBRET bromodomain assay, NanoLuc-BRD4-BD2 in HEK293 cells. The series is classed as binding. To be noted: nanoBRET assay, given as symbol only. The method, then: Plates were then incubated at 37° C.+5% CO2 incubator for 2 hours.
Fold Selectivity Calculated (IC50 BD1/IC50 BD2).

A further series concerns anti-collagen IgG1. Description: CIA model: rat anti-collagen IgG1 levels. The note with it: Group 3 (CIA + Dexamethasone). Further details: Average rat anti-collagen IgG1 levels, Mean: unit not given here. The series is classed as in vivo, Lewis rats.
The nature of series [2]: CIA study: animal body weight. The note with it: for Average animal body weight percent change: CIA; for Animal body weight percent change (%): Group 3 (CIA + Dexamethasone), individual animals.

For `CNC(=O)c1cc(C(=O)NC2CC2)cn(Cc2ccccc2)c1=O` [GSK620], in series [1] (Group 4 (CIA + GSK620)), the “Erosion/ulcer in articular cartilage, grade” value is “mild and mild to moderate”; the “Granulation tissue (pannus), grade” value was “mild and mild to moderate”; the “Increased eroded surface of bone (bone resorption), grade” value was “mild and minimal to moderate”; the “Increased periosteal bone (periosteal bone formation), grade” value was “mild and mild to moderate”. Also, the “Mixed cell inflammation, grade” value in series [1] (Group 4 (CIA + GSK620)) is on record as “moderate”. Also, in series [1], the “Erosion/Ulcer, cartilaginous, Marked (number of animals)” value was 0; the “Erosion/Ulcer, cartilaginous, Mild (number of animals)” value was found to be 6; the “Erosion/Ulcer, cartilaginous, Minimal (number of animals)” value turned out to be 0; the “Erosion/Ulcer, cartilaginous, Moderate (number of animals)” value worked out at 2. Moreover, in series [1], the “Granulation tissue, Marked (number of animals)” value turned out to be 0; the “Granulation tissue, Mild (number of animals)” value came to 4; the “Granulation tissue, Minimal (number of animals)” value came to 0; the “Granulation tissue, Moderate (number of animals)” value is given as 4. In series [1], the “Increased bone, periosteum, Marked (number of animals)” value amounted to 0; the “Increased bone, periosteum, Mild (number of animals)” value amounted to 6; the “Increased bone, periosteum, Minimal (number of animals)” value is 0; the “Increased bone, periosteum, Moderate (number of animals)” value was found to be 2. Also, in series [1], the “Increased eroded surface, bone, Marked (number of animals)” value amounted to 0; the “Increased eroded surface, bone, Mild (number of animals)” value turned out to be 4; the “Increased eroded surface, bone, Minimal (number of animals)” value is recorded as 1; the “Increased eroded surface, bone, Moderate (number of animals)” value was 3. In addition, in series [1], the “Mixed cell inflammation, Marked (number of animals)” value came to 0; the “Mixed cell inflammation, Mild (number of animals)” value is recorded as 0; the “Mixed cell inflammation, Minimal (number of animals)” value was 0; the “Mixed cell inflammation, Moderate (number of animals)” value is 8. Moreover, the “No Visible Lesions (number of animals)” value in series [1] was found to be 0. Also, the BD2 in the series on BET BD2 is on record as 79 nM.

`COCCn1cc(-c2ccccc2)c(-c2cn(C)c(=O)c3[nH]c(-c4cnn(C(F)(F)F)c4)cc23)cc1=O` [Compound B, 4-(1-(2-methoxyethyl)-2-oxo-5-phenyl-1,2-dihydropyridin-4-yl)-6-methyl-2-(1-(trifluoromethyl)-1H-pyrazol-4-yl)-1,6-dihydro-7H-pyrrolo[2,3-c]pyridin-7-one]: the “Selectivity (BD1/BD2)” value at BRD4 BD2 (higher number denotes higher selectivity) is “>>>>”. Further, the BD2 result on BRD4 BD2 (lower number denotes higher potency) was “≤”.

Regarding `C[C@@H]1C[C@H]2[C@@H]3CCC4=CC(=O)C=C[C@]4(C)[C@@]3(F)[C@@H](O)C[C@]2(C)[C@@]1(O)C(=O)CO` [Dexamethasone, dexamethasone], the “Average rat anti-collagen IgG1 levels, Mean” value with anti-collagen IgG1 is listed as 7833.69*. Moreover, in series [2] (Day 0), the “Average animal body weight percent change” value amounted to 0.00% and the “Animal body weight percent change (%)” value is 0.00%. In series [2] (Day 1), the “Average animal body weight percent change” value is −2.80%; the “Animal body weight percent change (%)” value is 0.66% and −7.41% and −1.72% and −2.37% and 1.20% and −6.21%. Also, in series [2] (Day 2), the “Average animal body weight percent change” value is −3.22%; the “Animal body weight percent change (%)” value is −0.66% and −6.79% and 1.15% and −1.78% and −3.01% and −8.07%. In addition, in series [2] (Day 3), the “Average animal body weight percent change” value was −4.37%; the “Animal body weight percent change (%)” value is −1.99% and 11.11% and 0.57% and −2.96% and −2.41% and −9.94%. Also, in series [2] (Day 4), the “Average animal body weight percent change” value is −4.95%; the “Animal body weight percent change (%)” value is −2.65% and −9.26% and −2.30% and −5.33% and −6.02%. For the same compound, in series [2] (Day 5), the “Average animal body weight percent change” value is listed as −4.95%; the “Animal body weight percent change (%)” value is −2.65% and −8.02% and −5.17% and −2.96% and −4.82%. For the same compound, in series [2] (Day 6), the “Average animal body weight percent change” value is on record as −4.41%; the “Animal body weight percent change (%)” value was −2.65% and 6.17% and −1.72% and −4.73% and −6.63%. In addition, in series [2] (Day 7), the “Average animal body weight percent change” value is given as −3.35%; the “Animal body weight percent change (%)” value is −0.66% and −5.56% and 2.30% and −4.14% and −3.61%. The “Average animal body weight percent change” value in series [2] (Day 8) is given as −3.90%. In series [2] (Day 9), the “Average animal body weight percent change” value was −1.84%. Besides, the “Average animal body weight percent change” value in series [2] (Day 10) is on record as −2.30%. The “Average animal body weight percent change” value in series [2] (Day 11) is −1.24%. Moreover, the “Average animal body weight percent change” value in series [2] (Day 12) is given as −1.18%. Moreover, the “Average animal body weight percent change” value in series [2] (Day 13) was −0.91%. The “Average animal body weight percent change” value in series [2] (Day 14) is listed as −1.24%. Besides, in series [2] (Day 15), the “Average animal body weight percent change” value amounted to 0.43%; the “Animal body weight percent change (%)” value is 9.93% and −3.09% and 2.30% and 0.59% and 1.20% and −6.83% and 2.33% and −0.63%. Also, in series [2] (Day 16), the “Average animal body weight percent change” value was −0.57%; the “Animal body weight percent change (%)” value is 3.97% and −5.56% and 7.47% and −0.59% and −4.22% and −8.70% and 1.16% and 1.88%. For the same compound, in series [2] (Day 17), the “Average animal body weight percent change” value turned out to be 0.62%; the “Animal body weight percent change (%)” value was 5.96% and −4.32% and 8.05% and −2.37% and 0.60% and −6.83% and −1.16% and 5.00%. Moreover, in series [2] (Day 18), the “Average animal body weight percent change” value was found to be 1.02%; the “Animal body weight percent change (%)” value is 3.97% and −6.17% and 8.62% and −2.37% and 0.00% and −5.59% and 4.07% and 5.63%. In addition, in series [2] (Day 19), the “Average animal body weight percent change” value is on record as 1.53%; the “Animal body weight percent change (%)” value was 7.28% and −9.26% and 10.34% and 0.59% and 1.20% and −5.59% and 5.81% and 1.88%. In series [2] (Day 20), the “Average animal body weight percent change” value was 1.66%; the “Animal body weight percent change (%)” value was 7.95% and −3.70% and 5.75% and 2.37% and 0.60% and 4.35% and 4.65% and 0.00%. Moreover, in series [2] (Day 21), the “Average animal body weight percent change” value is reported as 1.30%; the “Animal body weight percent change (%)” value is 8.61% and −3.70% and 7.47% and 0.00% and −3.01% and −5.59% and 2.91% and 3.75%. In addition, in series [1], the “Pathologic observations after microscopic evaluation” value is “no histopathological observations noted”; the “Erosion/Ulcer, cartilaginous, Marked (number of animals)” value was 0; the “Erosion/Ulcer, cartilaginous, Mild (number of animals)” value is listed as 0; the “Erosion/Ulcer, cartilaginous, Minimal (number of animals)” value came to 0. Moreover, in series [1], the “Erosion/Ulcer, cartilaginous, Moderate (number of animals)” value is listed as 0; the “Granulation tissue, Marked (number of animals)” value is given as 0; the “Granulation tissue, Mild (number of animals)” value was 0; the “Granulation tissue, Minimal (number of animals)” value is on record as 0. In addition, in series [1], the “Granulation tissue, Moderate (number of animals)” value is listed as 0; the “Increased bone, periosteum, Marked (number of animals)” value is reported as 0; the “Increased bone, periosteum, Mild (number of animals)” value was 0; the “Increased bone, periosteum, Minimal (number of animals)” value came to 0. Besides, in series [1], the “Increased bone, periosteum, Moderate (number of animals)” value stood at 0; the “Increased eroded surface, bone, Marked (number of animals)” value was found to be 0; the “Increased eroded surface, bone, Mild (number of animals)” value is recorded as 0; the “Increased eroded surface, bone, Minimal (number of animals)” value is recorded as 0. Besides, in series [1], the “Increased eroded surface, bone, Moderate (number of animals)” value is on record as 0; the “Mixed cell inflammation, Marked (number of animals)” value is given as 0; the “Mixed cell inflammation, Mild (number of animals)” value is on record as 0; the “Mixed cell inflammation, Minimal (number of animals)” value was determined as 0. In series [1], the “Mixed cell inflammation, Moderate (number of animals)” value came out at 0 and the “No Visible Lesions (number of animals)” value turned out to be 8. In addition, the “Pathologic observations after microscopic evaluation” value in series [1] (listed as dexamethasone) is reported as “No pathologic observations”.

For `CCNC(=O)c1cc2c(-c3cc(C(C)(C)O)ccc3Oc3c(C)cc(F)cc3C)cn(C)c(=O)c2[nH]1` [ABBV-744], the “Selectivity (BD1/BD2)” value with BET BD2 (FRET, comparator) is 753x (FRET). For the same compound, the BD2 in the series on BET BD2 is 28 nM.
